Measurements reported in patent US9096591B2, “Tetracyclic compounds” (Medivation Technologies, Inc., priority 2007, dated 2015).

How the values were obtained:
[1] = molecular target: T1, human recombinant serotonin (5-Hydroxytryptamine) 5-HT6 receptor (Homo sapiens, UniProt P50406); experiment: Serotonin 5-HT6 radioligand binding ([3H]LSD); details: compounds screened at 1 μM; read-out: Inhibition of ligand binding, Ser. 5-HT6 (percent inhibition of specific binding)
T1 construct: expressed in transfected cells; host or cells: human HeLa cells
Text: Receptor proteins were filtered and washed, the filters were then counted to determine [3H]LSD specifically bound. […] Biochemical assay results are presented as the percent inhibition of specific binding in Table 6.

[2] = molecular target: T2, human recombinant adrenergic α2B receptor (Homo sapiens, UniProt P18089); experiment: Adrenergic α2B radioligand binding ([3H]Rauwolscine); details: compounds screened at 1 μM; read-out: Inhibition of ligand binding, Adren. alpha2B (percent inhibition of specific binding)
T2 construct: expressed in transfected cells; host or cells: CHO-K1 cells
T2 sequence (P18089 1-450): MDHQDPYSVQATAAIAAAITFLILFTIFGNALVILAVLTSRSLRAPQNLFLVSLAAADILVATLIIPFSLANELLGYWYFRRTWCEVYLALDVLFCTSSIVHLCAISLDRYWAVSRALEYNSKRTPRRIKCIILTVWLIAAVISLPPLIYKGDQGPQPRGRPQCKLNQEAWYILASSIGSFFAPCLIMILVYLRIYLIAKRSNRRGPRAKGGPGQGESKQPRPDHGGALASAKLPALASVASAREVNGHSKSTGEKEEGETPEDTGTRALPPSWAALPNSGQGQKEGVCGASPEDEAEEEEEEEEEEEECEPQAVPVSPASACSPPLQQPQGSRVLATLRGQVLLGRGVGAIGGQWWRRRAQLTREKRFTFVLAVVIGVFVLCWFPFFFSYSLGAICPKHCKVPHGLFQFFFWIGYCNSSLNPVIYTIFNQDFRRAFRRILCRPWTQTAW
Method in brief: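 Membranes from CHO-K1 cells expressing the receptor, in 50 mM Tris-HCl pH 7.4 with 12.5 mM MgCl2, 1 mM EDTA, 0.2% BSA, incubated with compounds and 2.5 nM [3H]Rauwolscine for 60 minutes at 25 °C.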

[3] = molecular target: T3, human recombinant dopamine D2L receptor (Homo sapiens, UniProt P14416); experiment: Dopamine D2L radioligand binding ([3H]Spiperone); details: compounds screened at 1 μM; read-out: Inhibition of ligand binding, Dop. D2L (percent inhibition of specific binding)
T3 construct: expressed in transfected cells; host or cells: CHO cells
Protocol: (§1) Non-specific binding was estimated in the presence of 10 μM Haloperidol. Receptor proteins were filtered and washed, the filters were then counted to determine [^3H]Spiperone specifically bound. […] Biochemical assay results are presented as the percent inhibition of specific binding in Table 6.

[4] = molecular target: T4, human recombinant histamine H1 receptor (Homo sapiens, UniProt P35367); experiment: Histamine H1 radioligand binding ([3H]Pyrilamine); details: compounds screened at 1 μM; read-out: Inhibition of ligand binding, Hist. H1 (percent inhibition of specific binding)
T4 construct: expressed in transfected cells; host or cells: CHO cells
Method in brief: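 Receptor expressed in CHO cells, assayed in 50 mM Tris-HCl pH 7.4 with 2 mM MgCl2, 100 mM NaCl, 250 mM sucrose. Compounds tested at 1 μM in 1% DMSO; non-specific binding set with 1 μM pyrilamine. Filter-bound radioactivity counted; values are percent inhibition of specific binding.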

[5] = molecular target: T5, human recombinant adrenergic α1D receptor (Homo sapiens, UniProt P25100); experiment: Adrenergic α1D radioligand binding ([3H]Prozosin); details: compounds screened at 1 μM; read-out: Inhibition of ligand binding, Adren. alpha1D (percent inhibition of specific binding)
T5 construct: expressed in transfected cells; host or cells: HEK-293 cells
T5 sequence (P25100 1-572): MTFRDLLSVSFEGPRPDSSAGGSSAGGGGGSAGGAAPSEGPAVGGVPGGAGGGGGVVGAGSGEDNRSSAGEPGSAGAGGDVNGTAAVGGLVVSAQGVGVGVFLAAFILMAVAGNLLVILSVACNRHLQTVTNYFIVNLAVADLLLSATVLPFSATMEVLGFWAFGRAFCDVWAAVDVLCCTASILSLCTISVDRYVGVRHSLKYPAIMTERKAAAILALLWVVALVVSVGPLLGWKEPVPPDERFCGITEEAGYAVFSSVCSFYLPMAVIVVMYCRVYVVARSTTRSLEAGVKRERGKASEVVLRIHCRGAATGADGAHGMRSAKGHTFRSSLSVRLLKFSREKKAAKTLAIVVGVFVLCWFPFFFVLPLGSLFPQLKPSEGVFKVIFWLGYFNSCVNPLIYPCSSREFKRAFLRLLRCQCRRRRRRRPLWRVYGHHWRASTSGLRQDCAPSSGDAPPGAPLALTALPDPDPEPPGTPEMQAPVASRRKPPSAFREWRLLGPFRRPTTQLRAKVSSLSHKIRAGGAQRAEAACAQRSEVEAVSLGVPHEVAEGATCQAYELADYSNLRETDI
Protocol: as §1, with “Compounds of invention were incubated with 0.6 nM [^3H]Prozosin for 60 minutes at 25° C. Non-specific” for “Non-specific”, “phentolamine.” for “Haloperidol.”, “[^3H]Prozosin” for “[^3H]Spiperone”

[6] = molecular target: T6, human recombinant serotonin (5-Hydroxytryptamine) 5-HT2A receptor (Homo sapiens, UniProt P28223); experiment: Serotonin 5-HT2A radioligand binding ([3H]Ketanserin); details: read-out: Inhibition of ligand binding, Ser. 5-HT2A (percent inhibition of specific binding)
T6 construct: expressed in transfected cells; host or cells: CHO-K1 cells
Protocol: Compounds of the invention were incubated with 0.5 nM [^3H]Ketanserin for 60 minutes at 25° C. Non-specific binding was estimated in the presence of 1 μM Mianserin. Receptor proteins were filtered and washed, the filters were then counted to determine [^3H]Ketanserin specifically bound. […] Biochemical assay results are presented as the percent inhibition of specific binding in Table 6.

T6 sequence (P28223 whole entry): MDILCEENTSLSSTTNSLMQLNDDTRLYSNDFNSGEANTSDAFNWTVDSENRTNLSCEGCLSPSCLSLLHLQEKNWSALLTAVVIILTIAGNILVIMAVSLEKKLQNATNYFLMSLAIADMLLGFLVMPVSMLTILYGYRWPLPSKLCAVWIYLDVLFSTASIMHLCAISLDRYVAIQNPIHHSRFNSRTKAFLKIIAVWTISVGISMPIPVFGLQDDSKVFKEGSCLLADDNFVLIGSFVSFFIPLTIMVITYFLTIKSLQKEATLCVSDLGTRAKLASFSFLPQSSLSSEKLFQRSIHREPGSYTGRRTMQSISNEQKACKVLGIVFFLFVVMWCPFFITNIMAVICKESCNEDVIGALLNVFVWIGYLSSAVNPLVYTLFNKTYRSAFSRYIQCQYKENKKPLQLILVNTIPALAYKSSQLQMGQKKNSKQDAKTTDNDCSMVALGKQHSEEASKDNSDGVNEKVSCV
T1 sequence (P50406 whole entry): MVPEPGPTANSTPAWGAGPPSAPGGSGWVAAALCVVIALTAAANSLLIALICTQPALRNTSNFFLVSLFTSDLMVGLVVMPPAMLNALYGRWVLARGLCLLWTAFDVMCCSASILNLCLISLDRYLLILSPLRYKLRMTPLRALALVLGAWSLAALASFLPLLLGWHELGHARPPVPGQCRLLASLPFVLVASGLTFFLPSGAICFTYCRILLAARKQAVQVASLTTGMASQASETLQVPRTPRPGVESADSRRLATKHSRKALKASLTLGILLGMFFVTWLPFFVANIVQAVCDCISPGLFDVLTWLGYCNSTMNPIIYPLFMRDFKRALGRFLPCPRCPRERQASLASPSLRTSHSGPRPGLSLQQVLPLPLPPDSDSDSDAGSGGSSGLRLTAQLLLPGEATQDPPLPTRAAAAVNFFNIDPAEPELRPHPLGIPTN
T4 sequence (P35367 whole entry): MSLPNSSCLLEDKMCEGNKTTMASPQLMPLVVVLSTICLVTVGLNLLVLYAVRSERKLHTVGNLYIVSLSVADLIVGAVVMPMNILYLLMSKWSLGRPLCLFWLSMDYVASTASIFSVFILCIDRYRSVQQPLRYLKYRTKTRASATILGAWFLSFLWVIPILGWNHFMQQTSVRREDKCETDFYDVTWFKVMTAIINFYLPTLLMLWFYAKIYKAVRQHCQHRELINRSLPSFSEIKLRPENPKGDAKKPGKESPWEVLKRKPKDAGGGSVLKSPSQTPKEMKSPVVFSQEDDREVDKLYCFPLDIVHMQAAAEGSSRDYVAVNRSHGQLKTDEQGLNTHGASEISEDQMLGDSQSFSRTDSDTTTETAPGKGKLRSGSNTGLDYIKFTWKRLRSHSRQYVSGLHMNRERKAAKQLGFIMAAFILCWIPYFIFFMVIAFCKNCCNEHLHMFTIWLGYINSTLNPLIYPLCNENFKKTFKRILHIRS
T3 sequence (P14416 whole entry): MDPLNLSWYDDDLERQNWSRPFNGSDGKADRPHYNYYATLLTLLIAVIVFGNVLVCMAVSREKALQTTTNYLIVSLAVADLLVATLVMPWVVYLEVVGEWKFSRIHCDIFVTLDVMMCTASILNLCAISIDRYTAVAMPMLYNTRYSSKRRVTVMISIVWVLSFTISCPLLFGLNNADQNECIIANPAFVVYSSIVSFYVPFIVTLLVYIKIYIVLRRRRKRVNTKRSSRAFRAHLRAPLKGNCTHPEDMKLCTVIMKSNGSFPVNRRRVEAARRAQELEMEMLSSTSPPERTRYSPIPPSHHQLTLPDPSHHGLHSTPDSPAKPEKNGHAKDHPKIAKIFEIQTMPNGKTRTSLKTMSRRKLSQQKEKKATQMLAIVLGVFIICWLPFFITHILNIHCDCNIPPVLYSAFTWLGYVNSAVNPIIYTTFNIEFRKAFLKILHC

Compound | inhibition at 1 µM [1] [%] | inhibition at 1 µM [2] [%] | inhibition at 1 µM [3] [%] | inhibition at 1 µM [4] [%] | inhibition at 1 µM [5] [%] | inhibition at 1 µM [6] [%]
CN1CCc2c(c3ccncc3n2CCc2ccccn2)C1 [Compound 481, 7-aza-2-methyl-5-(2-(pyridin-2-yl)ethyl)-2,3,4,5-tetrahydro-1H-pyrido[4,3-b]indole] | 14 | 19 | 16 | 4 | 3 | 27
CN1CCc2c(c3ncccc3n2CCc2ccncc2)C1 [Compound 482, 9-aza-2-methyl-5-(2-(pyridin-4-yl)ethyl)-2,3,4,5-tetrahydro-1H-pyrido[4,3-b]indole] | 4 | 10 | 7 | -2 | 2 | -7
CN1CCc2c(c3ccncc3n2CCc2ccncc2)C1 [Compound 483, 7-aza-2-methyl-5-(2-(pyridin-4-yl)ethyl)-2,3,4,5-tetrahydro-1H-pyrido[4,3-b]indole] | 13 | 12 | 0 | -5 | 3 | 2
CN1CCc2c(c3ncccc3n2CCc2ccccn2)C1 [Compound 484, 9-aza-2-methyl-5-(2-(pyridin-2-yl)ethyl)-2,3,4,5-tetrahydro-1H-pyrido[4,3-b]indole] | 14 | 30 | 15 | 7 | 10 | 39
Cc1ccc(CCn2c3c(c4cc(I)ccc42)CN(C)CC3)cn1 [Compound 485, 2,3,4,5-tetrahydro-8-iodo-2-methyl-5-(2-(6-methylpyridin-3-yl)ethyl)-1H-pyrido[4,3-b]indole] | 94 | 98 | 43 | 105 | 69 | 69
CN1CCc2c(c3cc(I)ccc3n2CC(=O)N2CCCCC2)C1 [Compound 486, 2-(1,2,3,4-tetrahydro-8-iodo-2-methylpyrido[4,3-b]indol-5-yl)-1-(piperidin-1-yl)ethanone] | 14 | 7 | 0 | 28 | 22 | 19
Cc1ccc(CCn2c3c(c4cc(Br)ccc42)CN(C)CC3)cn1 [Compound 487, 8-bromo-2-methyl-5-(2-(6-methylpyridin-3-yl)ethyl)-2,3,4,5-tetrahydro-1H-pyrido[4,3-b]indole] | 94 | 100 | 42 | 98 | 90 | 87
CN1CCc2c(c3cc(Br)ccc3n2CC(=O)N2CCCCC2)C1 [Compound 516, 2-(8-bromo-2-methyl-3,4-dihydro-1H-pyrido[4,3-b]indol-5(2H)-yl)-1-(piperidin-1-yl)ethanone] | 9 | 21 | -4 | 49 | 26 | 6
Cc1ccc2c(c1)c1c(n2CCc2nc(-c3ccccc3)cs2)CCN(C)C1 [Compound C1-5] | 101 | 113 | 36 | 100 | 92 | 97
COc1ccc2c(c1)c1c(n2CCc2nc(-c3ccccc3)cs2)CCN(C)C1 [Compound C1-6] | 84 | 110 | 29 | 104 | 72 | 84
CN1CCc2c(c3cc(F)ccc3n2CCc2nc(-c3ccccc3)cs2)C1 [Compound C1-7] | 91 | 113 | 25 | 99 | 66 | 96
CN1CCc2c(c3ccccc3n2CCc2noc(-c3ccccc3)n2)C1 [Compound C4-1] | 51 | 94 | 14 | 93 | 60 | 96
Cc1ccc2c(c1)c1c(n2CCc2noc(-c3ccccc3)n2)CCN(C)C1 [Compound C4-4] | 103 | 102 | 46 | 101 | 92 | 100
CN1CCc2c(c3cc(Cl)ccc3n2CCc2noc(-c3ccccc3)n2)C1 [Compound C4-6] | 105 | 94 | 36 | 100 | 84 | 99
